Ki and IC50 data for 17 molecules are collected here from patent US20080207527A1, “Bicyclic Compounds Which Inhibit Beta-Secretase Activity and Methods of Use Thereof” (CoMentis, Inc., priority 2004, published 2008).

One experiment concerns the target Cathepsin D (Homo sapiens, UniProt P07339). The experiment is described as follows: Inhibition of cathepsin D activity (substrate peptide hydrolysis, MALDI-TOF). Format: biochemical. The note with it: pH 4.1, 37 degrees C., read-out: Cath D Ki.
In a further experiment the target is T1, memapsin 1 (Homo sapiens, UniProt Q9Y5Z0).
T1 sequence (Q9Y5Z0 63-518): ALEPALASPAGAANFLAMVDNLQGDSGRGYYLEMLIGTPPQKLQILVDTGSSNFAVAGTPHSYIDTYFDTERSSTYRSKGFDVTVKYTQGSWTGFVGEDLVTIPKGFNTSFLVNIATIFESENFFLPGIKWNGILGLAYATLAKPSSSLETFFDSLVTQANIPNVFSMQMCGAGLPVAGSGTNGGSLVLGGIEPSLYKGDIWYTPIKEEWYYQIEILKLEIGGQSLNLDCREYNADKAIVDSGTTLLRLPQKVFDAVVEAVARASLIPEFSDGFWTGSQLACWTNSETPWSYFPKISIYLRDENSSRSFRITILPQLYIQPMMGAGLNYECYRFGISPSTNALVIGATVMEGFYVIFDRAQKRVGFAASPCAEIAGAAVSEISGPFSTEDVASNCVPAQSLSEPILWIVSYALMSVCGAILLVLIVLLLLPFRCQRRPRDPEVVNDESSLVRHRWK
The experiment is described as follows: Inhibition of memapsin 1 beta-secretase activity (substrate peptide hydrolysis, MALDI-TOF). Type of experiment: biochemical. The note with it: pH 4.1, 37 degrees C., read-out: M1 Ki.

In a further experiment the test system is Aβ production. The experiment is described as follows: Cellular Aβ IC50 determination (Aβ40 sandwich ELISA). Format: cell-based. Particulars: Cricetulus griseus, Chinese hamster ovary cells over-expressing human APP695 with London and Swedish mutations, 24 h. Summed up: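 CHO cells over-expressing human APP695 (London and Swedish mutations) were treated 48 h after seeding with serially diluted compound, top final concentration near 4 μM (0.4% DMSO), for 24 h at 37 °C, 5% CO2. Aβ40 in medium was measured by sandwich ELISA; values relative to control were fit to a 4-parameter IC50 model.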

The next experiment addresses memapsin 2 (Homo sapiens, UniProt P56817). Kind of experiment: Inhibition of memapsin 2 beta-secretase activity toward fluorogenic substrate FS-2. Format: biochemical. Particulars: pH 4, 37° C., 20 minutes pre-incubation, read-out: M2 Ki. A digest of the protocol:
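Enzyme pre-incubated with compound 20 min at pH 4, 37 °C, then fluorogenic substrate FS-2 added. Inhibition derived from rate of fluorescence increase from peptide hydrolysis.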

Some results are limits rather than exact numbers.

Sequence of Cathepsin D (P07339 65-412, species assumed): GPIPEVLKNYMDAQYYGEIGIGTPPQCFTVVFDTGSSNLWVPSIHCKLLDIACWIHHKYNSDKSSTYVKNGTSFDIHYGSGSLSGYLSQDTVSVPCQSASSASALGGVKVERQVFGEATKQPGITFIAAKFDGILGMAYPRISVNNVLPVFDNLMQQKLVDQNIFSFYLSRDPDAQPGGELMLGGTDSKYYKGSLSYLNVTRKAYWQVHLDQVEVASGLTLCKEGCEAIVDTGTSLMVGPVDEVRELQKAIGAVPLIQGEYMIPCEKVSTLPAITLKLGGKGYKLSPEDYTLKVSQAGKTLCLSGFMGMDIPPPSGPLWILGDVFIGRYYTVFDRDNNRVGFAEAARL
Sequence of memapsin 2 (P56817 46-501): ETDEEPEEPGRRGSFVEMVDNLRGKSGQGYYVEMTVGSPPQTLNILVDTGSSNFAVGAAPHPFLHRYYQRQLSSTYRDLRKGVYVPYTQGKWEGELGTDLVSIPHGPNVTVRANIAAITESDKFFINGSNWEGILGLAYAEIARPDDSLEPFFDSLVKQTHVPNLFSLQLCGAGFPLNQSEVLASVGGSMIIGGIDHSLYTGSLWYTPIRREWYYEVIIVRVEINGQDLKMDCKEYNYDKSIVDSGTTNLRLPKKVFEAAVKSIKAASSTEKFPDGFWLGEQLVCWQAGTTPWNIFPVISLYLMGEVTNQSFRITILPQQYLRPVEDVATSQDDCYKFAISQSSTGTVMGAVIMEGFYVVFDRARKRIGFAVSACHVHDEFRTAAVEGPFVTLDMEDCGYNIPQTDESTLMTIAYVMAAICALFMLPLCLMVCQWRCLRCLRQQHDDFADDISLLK

With `CC(C)CC(NC(=O)c1cc(C(=O)NC(C)c2ccccc2)cc(N(C)C(=O)OC2CCOC2)c1)C(O)CC(C)C(=O)NC(C(=O)NC(C)C)C(C)C` (centres unmarked) [tetrahydrofuran-3-yl 3-(5-hydroxy-8-(1-(isopropylamino)-3-methyl-1-oxobutan-2-ylamino)-2,7-dimethyl-8-oxooctan-4-ylcarbamoyl)-5-(1-phenylethylcarbamoyl)phenyl(methyl)carbamate], the Ki (usually the equilibrium dissociation constant of an inhibitor or competing ligand from its target) at Cathepsin D was < 405 nM; at memapsin 1, < 405 nM; at memapsin 2, 405 to 2000 nM. In addition, the IC50 (commonly the midpoint of a concentration-inhibition curve) in the experiment with Aβ production was > 20000 nM.
As for `CCCN(CCC)C(=O)c1cccc(C(=O)NC(Cc2ccc(OC)c(Cl)c2)C(O)CC(C)C(=O)NC(C(=O)NCC(C)C)C(C)C)c1` (centres unmarked) [N1-(1-(3-chloro-4-methoxyphenyl)-3-hydroxy-6-(1-(isobutylamino)-3-methyl-1-oxobutan-2-ylamino)-5-methyl-6-oxohexan-2-yl)-N3,N3-dipropylisophthalamide], the results for the Ki on Cathepsin D, on memapsin 1 and on memapsin 2 were < 405 nM, < 405 nM and 405 to 2000 nM, respectively. This molecule also came in with an IC50 with Aβ production of 10000 to 20000 nM.
As to `CC(C)CC(NC(=O)c1cc(C(=O)NC(C)c2ccccc2)cc(N(C)S(C)(=O)=O)c1)C(O)CC(C)C(=O)NC(C(=O)NCc1ccncc1)C(C)C` (centres unmarked) [N1-(5-hydroxy-2,7-dimethyl-8-(3-methyl-1-oxo-1-(pyridin-4-ylmethylamino)butan-2-ylamino)-8-oxooctan-4-yl)-5-(N-methylmethylsulfonamido)-N3-(1-phenylethyl)isophthalamide], the Ki on Cathepsin D, on memapsin 1 and on memapsin 2 was < 405 nM each time. The IC50 in the experiment on Aβ production is < 5000 nM.
Turning to `Cc1ccc(CNC(=O)c2cc(C(=O)NC(CC(C)C)C(O)CC(C)C(=O)NC(C(=O)NCC(C)C)C(C)C)cc(N(C)S(C)(=O)=O)c2)o1` (centres unmarked) [N1-(5-hydroxy-8-(1-(isobutylamino)-3-methyl-1-oxobutan-2-ylamino)-2,7-dimethyl-8-oxooctan-4-yl)-N3-((5-methylfuran-2-yl)methyl)-5-(N-methylmethylsulfonamido)isophthalamide], the figures for the Ki at Cathepsin D, at memapsin 1 and at memapsin 2 were 405 to 2000 nM, 405 to 2000 nM and < 405 nM, respectively. For the same molecule, in the experiment with Aβ production, the IC50 was < 5000 nM.
`CC(C)CNC(=O)C(NC(=O)C(C)CC(O)C(CC(C)C)NC(=O)c1cccc(C(=O)N(C)Cc2ccccn2)c1)C(C)C` (centres unmarked) [N1-(5-hydroxy-8-(1-(isobutylamino)-3-methyl-1-oxobutan-2-ylamino)-2,7-dimethyl-8-oxooctan-4-yl)-N3-methyl-N3-(pyridin-2-ylmethyl)isophthalamide]: the results for the Ki at Cathepsin D, on memapsin 1 and at memapsin 2 were < 405 nM, < 405 nM and 405 to 2000 nM, respectively. Also, in the experiment on Aβ production, the IC50 is > 20000 nM.
On to `CC(C)CNC(=O)C(NC(=O)C(C)CC(O)C(CC(C)C)NC(=O)c1cccc(C(=O)N(C)Cc2cccnc2)c1)C(C)C` (centres unmarked) [N1-(5-hydroxy-8-(1-(isobutylamino)-3-methyl-1-oxobutan-2-ylamino)-2,7-dimethyl-8-oxooctan-4-yl)-N3-methyl-N3-(pyridin-3-ylmethyl)isophthalamide], for which the Ki at Cathepsin D, at memapsin 1 and on memapsin 2 was < 405 nM each time. Moreover, the IC50 with Aβ production was > 20000 nM.
With `CC(C)CNC(=O)C(NC(=O)C(C)CC(O)C(CC(C)C)NC(=O)c1cc(C(=O)NC(C)c2ccccc2)cc(S(=O)(=O)N(C)C)c1)C(C)C` (centres unmarked) [5-(N,N-dimethylsulfamoyl)-N1-(5-hydroxy-8-(1-(isobutylamino)-3-methyl-1-oxobutan-2-ylamino)-2,7-dimethyl-8-oxooctan-4-yl)-N3-(1-phenylethyl)isophthalamide], the Ki on Cathepsin D is < 405 nM; on memapsin 1, < 405 nM; at memapsin 2, 405 to 2000 nM. In addition, the IC50 in the experiment with Aβ production was < 5000 nM.
For the molecule `Cc1cc(C(=O)NC(CC(C)C)C(O)CC(C)C(=O)NC(C(=O)NCC(C)C)C(C)C)cc(C(=O)N(C)Cc2nc(C)cs2)c1` (centres unmarked) [N1-(5-hydroxy-8-(1-(isobutylamino)-3-methyl-1-oxobutan-2-ylamino)-2,7-dimethyl-8-oxooctan-4-yl)-N3,5-dimethyl-N3-((4-methylthiazol-2-yl)methyl)isophthalamide], the Ki on Cathepsin D, on memapsin 1 and at memapsin 2 was < 405 nM throughout. Besides, in the experiment on Aβ production, the IC50 was < 5000 nM.
With `CCc1csc(CN(C)C(=O)c2cccc(C(=O)NC(CC(C)C)C(O)CC(C)C(=O)NC(C(=O)NCC(C)C)C(C)C)c2)n1` (centres unmarked) [N1-((4-ethylthiazol-2-yl)methyl)-N3-(5-hydroxy-8-(1-(isobutylamino)-3-methyl-1-oxobutan-2-ylamino)-2,7-dimethyl-8-oxooctan-4-yl)-N1-methylisophthalamide], the figures for the Ki on Cathepsin D, at memapsin 1 and on memapsin 2 were > 5000 nM, < 405 nM and < 405 nM, respectively. In addition, in the experiment with Aβ production, the IC50 is > 20000 nM.
`CCC(NC(=O)C(C)CC(O)C(CC(C)C)NC(=O)c1cccc(C(=O)N(C)Cc2nc(C)cs2)c1)C(=O)NC(C)C` (centres unmarked) [N1-(5-hydroxy-8-(1-(isopropylamino)-1-oxobutan-2-ylamino)-2,7-dimethyl-8-oxooctan-4-yl)-N3-methyl-N3-((4-methylthiazol-2-yl)methyl)isophthalamide]: the Ki on Cathepsin D is 405 to 2000 nM; at memapsin 1 it was > 5000 nM; at memapsin 2 it was < 405 nM. In the experiment with Aβ production, the IC50 was < 5000 nM.
On the same counts, the results for `CC(C)CC(NC(=O)c1cc(C(=O)NC(C)c2ccccc2)cc(N(C)S(C)(=O)=O)c1)C(O)CC(C)C(=O)NCc1ccccc1` (centres unmarked) [N1-(8-(benzylamino)-5-hydroxy-2,7-dimethyl-8-oxooctan-4-yl)-5-(N-methylmethylsulfonamido)-N3-(1-phenylethyl)isophthalamide] are > 5000 nM, 2000 to 5000 nM, 2000 to 5000 nM and > 20000 nM.
The matching figures for `CC(C)CNC(=O)C(NC(=O)C(C)CC(O)C(CC(C)C)NC(=O)c1cccc(C(=O)N(C)C(C)c2ccccc2)c1)C(C)C` (centres unmarked) [N1-(5-hydroxy-8-(1-(isobutylamino)-3-methyl-1-oxobutan-2-ylamino)-2,7-dimethyl-8-oxooctan-4-yl)-N3-methyl-N3-(1-phenylethyl)isophthalamide]: < 405 nM, < 405 nM, < 405 nM and > 20000 nM.
On the same counts, the results for `CC(C)CNC(=O)C(NC(=O)C(C)CC(O)C(CC(C)C)NC(=O)c1cc(C(=O)NCc2cnccn2)cc(N(C)S(C)(=O)=O)c1)C(C)C` (centres unmarked) [N1-(5-hydroxy-8-(1-(isobutylamino)-3-methyl-1-oxobutan-2-ylamino)-2,7-dimethyl-8-oxooctan-4-yl)-5-(N-methylmethylsulfonamido)-N3-(pyrazin-2-ylmethyl)isophthalamide] are 405 to 2000 nM, 405 to 2000 nM, < 405 nM and > 20000 nM.
Take `Cc1csc(CNC(=O)c2cccc(C(=O)N[C@@H](CC(C)C)[C@@H](O)C[C@@H](C)C(=O)N[C@H](C(=O)NCC(C)C)C(C)C)c2)n1` [N1-(5-hydroxy-8-(1-(isobutylamino)-3-methyl-1-oxobutan-2-ylamino)-2,7-dimethyl-8-oxooctan-4-yl)-N3-((4-methylthiazol-2-yl)methyl)isophthalamide]: the Ki at Cathepsin D is 405 to 2000 nM; at memapsin 1, 2000 to 5000 nM; at memapsin 2, < 405 nM. Moreover, the IC50 in the experiment with Aβ production is > 20000 nM.
The matching figures for `CCC(NC(=O)C(C)CC(O)C(CC(C)C)NC(=O)c1cc(C(=O)NC(C)c2ccccc2)cc(N(C)S(C)(=O)=O)c1)C(=O)NCC(C)C` (centres unmarked) [N1-(5-hydroxy-8-(1-(isobutylamino)-1-oxobutan-2-ylamino)-2,7-dimethyl-8-oxooctan-4-yl)-5-(N-methylmethylsulfonamido)-N3-(1-phenylethyl)isophthalamide]: < 405 nM, < 405 nM, < 405 nM and < 5000 nM.
On the same counts, the results for `CC(C)CNC(=O)C(NC(=O)C(C)CC(O)C(CC(C)C)NC(=O)c1cc(C(=O)N(C)Cc2ccccc2)cc(N(C)S(C)(=O)=O)c1)C(C)C` (centres unmarked) [N1-benzyl-N3-(5-hydroxy-8-(1-(isobutylamino)-3-methyl-1-oxobutan-2-ylamino)-2,7-dimethyl-8-oxooctan-4-yl)-N1-methyl-5-(N-methylmethylsulfonamido)isophthalamide] are < 405 nM, < 405 nM, < 405 nM and 10000 to 20000 nM.
The matching figures for `CC(C)CC(NC(=O)c1cc(C(=O)NC2c3ccccc3CC2O)cc(N(C)S(C)(=O)=O)c1)C(O)CC(C)C(=O)NC(C(=O)NC(C)C)C(C)C` (centres unmarked) [N1-(2-hydroxy-2,3-dihydro-1H-inden-1-yl)-N3-(5-hydroxy-8-(1-(isopropylamino)-3-methyl-1-oxobutan-2-ylamino)-2,7-dimethyl-8-oxooctan-4-yl)-5-(N-methylmethylsulfonamido)isophthalamide]: 405 to 2000 nM, 405 to 2000 nM, 405 to 2000 nM and > 20000 nM.
